Measured values as given in US20090220445A1, “HAIR CARE COMPOSITIONS AND METHODS FOR INCREASING HAIR DIAMETER AND DELIVERING ADDITIONAL BENEFITS” (priority 2008, published 2009).

Test system: Primary human dermal papilla cells
Assay: Synergy study: survival of metabolically stressed dermal papilla cells (ATP, Cell Titer Glo)
Format: cell-based
Details: cells metabolically stressed 48 hours in reduced media, control 100% water
Method: The dermal papilla, in normal human hair, is the control center for hair diameter. Increasing survival of dermal papilla cells in situ leads to increased hair diameter. Accordingly, an increase in survival of dermal papilla cells correlates with an increase in hair diameter.
Primary human dermal papilla cells were metabolically stressed for 48 hours in reduced standard tissue culture media. During this period of stress the cells were treated with the mixtures or individual ingredients below. After 48 hr the metabolic activity of the cells was measured by the amount of ATP using the Cell Titer Glo™ kit (Promega).

NC(=O)c1cccnc1 [Niacinamide]
Survival rate: % Change from Control (0.006%): −8%

Cn1c(=O)c2c(ncn2C)n(C)c1=O [Caffeine]
Survival rate: % Change from Control (0.05%): +41%

CC(C)(CO)[C@@H](O)C(=O)NCCCO [Panthenol]
Survival rate: % Change from Control (0.15%): +6%
